# According to patent publication US11242327B2, “Analgesic compounds” (RECURIUM IP HOLDINGS, LLC, priority 2017, dated 2022):
# Columns and labels:
# male Sprague-Dawley rats = test: Spinal Nerve Ligation (SNL) Neuropathic Pain Test; type: in vivo; conditions: rat, oral; for 50% response threshold, 1 h: 1 h after administration; for 50% response threshold, 2 h: 2 h after administration; for 50% response threshold, 4 h: 4 h after administration
# Protocol: Neuropathy was induced in non-fasted male Sprague-Dawley rats weighing 75-100 g by surgically ligating the 4th and 5th lumbar spinal nerves (L4 and L5), a procedure also known as spinal nerve ligation (SNL). Animals were placed in individual acrylic chambers on a metal mesh surface and allowed to acclimate to their surroundings for a minimum of 15 minutes before testing. Mechanical sensitivity was assessed using 8 Semmes-Weinstein filaments (Stoelting©; Wood Dale, Ill., USA) with varying stiffness (0.4, 0.6, 1.0, 2.0, 4.0, 6.0, 8.0, and 15 g) according to an up-down method to determine 50% response thresholds. Each filament was presented perpendicular to the plantar surface with sufficient force to cause slight buckling against the paw and held for approximately 6 seconds or until a positive response is noted (paw sharply withdrawn). Testing was initiated with the 2.0 g filament. In the absence of a paw withdrawal response, the next stronger stimulus was presented. In the event of paw withdrawal, the next weaker stimulus was used. This process was repeated until 4 responses after the initial change in response (no response to positive response or positive response to no response) were obtained. […] The 50% response threshold was calculated using the formula: 50% response threshold (g)=(10^(Xf+kδ))/10,000;
# Xf=value (in log units) of the final von Frey filament used;
# k=tabular value for the pattern of positive/negative responses (See Chaplan, et al. “Quantitative Assessment of Tactile Allodynia in the Rat Paw” J. Neurosci. Meth. 53.1 (1994): 56-63);
# […] =mean difference (in log units) between stimuli.
# The mean and standard error of the mean (SEM) were determined for each paw for each treatment group at each time point. Thresholds were determined prior to surgery and again 14 days later. After 14 days, test or control compounds were administered and thresholds were again determined 1, 2, and 4 hours after compound administration. Median response thresholds in compound-treated animals were compared to those in vehicle treated animals to determine anti-allodynic efficacy of test and control compounds. Test compounds were administered orally at concentrations of 10, 30 or 100 mg/kg and gabapentin was administered orally at a concentration of 100 mg/kg. The control group received the vehicle (sterile water). In Table 7, ‘A’ designates a 50% threshold of ≥8 grams, ‘B’ designates a 50% threshold of ≥6 and <8 grams, and ‘C’ designates a 50% threshold of <6 grams.
# The results provided in Table 7 are for oral administration in rats.
# Opiate δ2 = Opiate δ2 (Homo sapiens, UniProt P41143); test: NSAIDS and Opioid Receptor Test: Opiate δ2; type: binding; conditions: 10 μM
# Protocol: (§1) Compounds were screened as DMSO solutions at 10 μM, 100 μM, or 200 μM and values represent percent inhibition of control-specific binding. […] As NSAID and opioid mechanisms of action are precluded, a person of ordinary skill in the art understands that undesirable side effects associated with inhibition of COX receptors in NSAIDs and activation of opiate receptors in opioids can be avoided by compounds described herein. Furthermore, opioids are known to lose their analgesic potency after to continued administration. (See Benyamin, et al. “Opioid Complications and Side Effects” Pain Physician 11 (2008): S105-S120). As the data indicates compounds described herein have a different mechanism action compared to opioids, a person of ordinary skill in the art would appreciate that compounds described herein would not be expected to lose their analgesic potency like opioids after continued admininistration.
# Opiate κ = Opiate κ (Homo sapiens, UniProt P41145); test: NSAIDS and Opioid Receptor Test: Opiate κ; type: binding; conditions: 10 μM
# Protocol: as §1
# Opiate μ = Opiate μ (Homo sapiens, UniProt P35372); test: NSAIDS and Opioid Receptor Test: Opiate μ; type: binding; conditions: 10 μM
# Protocol: as §1
# [1] = Bioavailability Test (rat pharmacokinetics); type: in vivo; conditions: for F: PO 30 mg/kg vs IV 3 mg/kg; for AUC(0-inf) / clearance / half-life / Vd / Cmax / Tmax: male, Sprague-Dawley, in vivo; for Vd: read-out: Vdss
# Protocol: Oral bioavailability of compounds of Formulae (Ie), (Ih), (Ik), and (Ir), or a pharmaceutically acceptable salt of any of the foregoing, were evaluated in fasted male Sprague-Dawley (SD) rats weighing 200-225g. Compounds were dosed at 3 mg/kg (IV) and 30 mg/kg (PO). Unless otherwise noted, compounds were dissolved in 0.9% saline for IV dosing and 100% sterile water for PO dosing. Pharmacokinetic parameters were determined using Phoenix WinNonlin (v7.0). […]
# Opiate δ2, sequence (P41143 whole entry): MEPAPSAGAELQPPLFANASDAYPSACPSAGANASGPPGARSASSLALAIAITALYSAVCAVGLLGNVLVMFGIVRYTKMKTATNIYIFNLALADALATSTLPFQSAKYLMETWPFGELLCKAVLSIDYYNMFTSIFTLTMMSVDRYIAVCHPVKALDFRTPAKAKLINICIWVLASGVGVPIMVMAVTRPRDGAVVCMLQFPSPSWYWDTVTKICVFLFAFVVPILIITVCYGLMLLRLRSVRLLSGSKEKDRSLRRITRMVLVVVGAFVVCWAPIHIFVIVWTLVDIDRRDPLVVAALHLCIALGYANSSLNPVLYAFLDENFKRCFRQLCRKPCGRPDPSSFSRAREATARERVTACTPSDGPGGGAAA
# Opiate κ, sequence (P41145 whole entry): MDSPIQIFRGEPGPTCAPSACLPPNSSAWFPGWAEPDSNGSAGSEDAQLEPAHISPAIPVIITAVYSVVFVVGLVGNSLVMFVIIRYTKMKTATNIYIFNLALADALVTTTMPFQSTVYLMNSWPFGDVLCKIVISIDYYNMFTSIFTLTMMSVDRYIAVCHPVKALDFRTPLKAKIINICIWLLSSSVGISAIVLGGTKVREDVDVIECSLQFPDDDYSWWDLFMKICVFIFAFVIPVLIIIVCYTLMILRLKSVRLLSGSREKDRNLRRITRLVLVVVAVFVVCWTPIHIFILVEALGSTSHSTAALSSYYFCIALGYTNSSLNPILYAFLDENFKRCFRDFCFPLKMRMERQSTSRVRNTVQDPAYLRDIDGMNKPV
# Opiate μ, sequence (P35372 whole entry): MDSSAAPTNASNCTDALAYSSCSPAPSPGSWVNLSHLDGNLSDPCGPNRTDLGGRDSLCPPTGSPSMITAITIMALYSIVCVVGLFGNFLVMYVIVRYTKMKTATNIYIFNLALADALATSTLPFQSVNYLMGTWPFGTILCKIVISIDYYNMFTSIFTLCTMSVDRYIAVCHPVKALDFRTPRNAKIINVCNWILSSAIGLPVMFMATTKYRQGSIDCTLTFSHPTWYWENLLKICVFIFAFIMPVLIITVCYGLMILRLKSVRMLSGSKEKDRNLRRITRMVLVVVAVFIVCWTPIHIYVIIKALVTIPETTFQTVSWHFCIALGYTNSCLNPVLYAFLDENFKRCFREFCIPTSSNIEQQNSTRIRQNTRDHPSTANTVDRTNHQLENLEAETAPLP
SMILES,"50% response threshold, 1 h (male Sprague-Dawley rats; 10 mg/kg)","50% response threshold, 2 h (male Sprague-Dawley rats; 10 mg/kg)","50% response threshold, 4 h (male Sprague-Dawley rats; 10 mg/kg)","50% response threshold, 1 h (male Sprague-Dawley rats; 30 mg/kg)","50% response threshold, 2 h (male Sprague-Dawley rats; 30 mg/kg)","50% response threshold, 4 h (male Sprague-Dawley rats; 30 mg/kg)","50% response threshold, 1 h (male Sprague-Dawley rats; 100 mg/kg)","50% response threshold, 2 h (male Sprague-Dawley rats; 100 mg/kg)","50% response threshold, 4 h (male Sprague-Dawley rats; 100 mg/kg)",inhibition at 10 µM (Opiate δ2) [%],inhibition at 10 µM (Opiate κ) [%],inhibition at 10 µM (Opiate μ) [%],F [1] [%],"AUC(0-inf) ([1]; IV 3 mg/kg, 0.9% saline) [µM·h]","clearance ([1]; IV 3 mg/kg, 0.9% saline) [mL/min/kg]","half-life ([1]; IV 3 mg/kg, 0.9% saline) [h]","Vd ([1]; IV 3 mg/kg, 0.9% saline) [L/kg]","AUC(0-inf) ([1]; PO 30 mg/kg, sterile water) [µM·h]","Cmax ([1]; PO 30 mg/kg, sterile water) [µM]","Tmax ([1]; PO 30 mg/kg, sterile water) [h]",also measured
"Cl.NC12CC(c3nc(C(F)(F)F)cs3)(C1)C2 [Compound 1, 3-(4-(Trifluoromethyl)thiazol-2-yl)bicyclo[1.1.1]pentan-1-amine hydrochloride]",C (a 50% threshold of <6 grams),C (a 50% threshold of <6 grams),C (a 50% threshold of <6 grams),B (a 50% threshold of ≥6 and <8 grams),B (a 50% threshold of ≥6 and <8 grams),C (a 50% threshold of <6 grams),A (a 50% threshold of ≥8 grams),A (a 50% threshold of ≥8 grams),A (a 50% threshold of ≥8 grams),7,-4,11,115,19.2,11,3.1,1.4,277,49,0.3,"half-life ([1]; PO 30 mg/kg, sterile water): 5.6 h"
"Cc1sc(C23CC(N)(C2)C3)nc1C(F)(F)F.Cl [Compound 2, 3-(5-Methyl-4-(trifluoromethyl)thiazol-2-yl)bicyclo[1.1.1]pentan-1-amine hydrochloride]",C (a 50% threshold of <6 grams),C (a 50% threshold of <6 grams),C (a 50% threshold of <6 grams),C (a 50% threshold of <6 grams),C (a 50% threshold of <6 grams),C (a 50% threshold of <6 grams),A (a 50% threshold of ≥8 grams),A (a 50% threshold of ≥8 grams),B (a 50% threshold of ≥6 and <8 grams),10,-9,9,79,4,52,2.7,3.6,29,12,1,"half-life ([1]; PO 30 mg/kg, sterile water): 2.4 h"
